The record followed here is a melting point compilation (Tetko et al.; mined from patent text by program, amines drawn as free bases though some values may be those of a salt).

`COC(=O)NCC1=C(n2ccccc2=O)c2cc([N+](=O)[O-])ccc2OC1(C)C`: the melting point (usually the temperature, or range, at which the solid turns liquid) turned out to be 199 °C.

Take `CC(C)c1ccc2nc[nH]c(=O)c2c1`: the melting point stood at 147 °C.

Regarding `COc1ccc(I)c(CC(=O)N(C)C)c1`, the melting point lay in the range of 86 to 89 °C.

`CN1CCN=C1CC(c1ccccc1)c1ccccc1`: the melting point was in the range of 108 to 110 °C.

With `COc1cc(N=Nc2ccc3[nH]nnc3c2)c(O)c2ccccc12`, the melting point amounted to 254 °C.

As for `Nc1ccc(-c2nccc3[nH]c(=O)ccc23)cc1`, the melting point is 309 to 312 °C.

For `CS(=O)c1ccc(Oc2ccc(Cl)c(Cl)c2)cc1` (stereo unspecified), the melting point fell in the range of 92 to 93.5 °C.

For `CC(=O)N1CCC(CCCC(=O)c2ccc3c(c2)CCN(C(=O)C(F)(F)F)CC3)CC1`, the melting point lay in the range of 101 to 102 °C.

`CC(NC(=O)N(C)O)c1ccc(OCc2ccccc2)cc1` (stereo unspecified) showed a melting point of 105 to 106 °C.

The molecule `CC(=O)OCCCCC#Cc1ccc2c3ccc4c5c(ccc(c6cccc1c62)c53)C(=O)N(c1c(C(C)C)cccc1C(C)C)C4=O` returned a melting point above 300 °C.

Molecule `N#Cc1cc(Cl)c(NC(=O)NC(=O)c2ccccc2Cl)cc1Cl` had a melting point of 244 to 247 °C.

Take `CC(=O)c1cc(C2CCCCC2)ccc1O`: the melting point was below 50 °C.

`O=C(O)/C=C/c1ccc(N2CCCC2)nc1`: the melting point worked out at 170 °C.

`COc1ccc(S(=O)(=O)n2ccc3ccnc(-c4ccccc4)c32)cc1`: the melting point was 149 to 151 °C.

`Cc1oc(-c2ccccc2)nc1COc1cncc(CO)c1` came in with a melting point of 111 to 112 °C.

For the molecule `CNC(=O)COC[C@@H]1CC(c2ccc(-c3ccc(N4C[C@H](Cn5ccnn5)OC4=O)cc3F)cn2)=NO1`, the melting point lay in the range of 153 to 156 °C.

Regarding `Nc1ncc(-c2noc(-c3cnn4c(C(F)(F)F)cc(-c5ccc(F)c(F)c5)nc34)n2)cn1`, the melting point was 268 °C.

In turn, `NS(=O)(=O)c1ccc(Nc2nc(OCC3CC=CCC3)c3nc[nH]c3n2)cc1` (stereo unspecified) had a melting point of 165 °C.

On to `Cc1cc(C)cc(C(=O)N2CCN(C(=O)CNC3CCN(C(=O)c4ccccc4)CC3)C(c3ccc(Cl)c(Cl)c3)C2)c1` (racemic), for which the melting point lay in the range of 94 to 96 °C.

The molecule `Fc1cccc(F)c1-c1nc(COc2ccc(Oc3ccc(C(F)(F)F)cc3)cc2)no1` had a melting point of 83 to 84 °C.

On to `CN1CC(Oc2ccc(Nc3cc(Br)cn(C)c3=O)nc2)C1`, for which the melting point is 100 to 101 °C.

Take `COC1C(NC(=O)C(F)(F)F)CC(O)OC1C` (stereo unspecified): the melting point amounted to 185 °C.

`Cc1noc(=O)c2ccc(NC(=O)C(=O)CC3(c4ccccc4)CC3)cc12` gave a melting point of 155 to 156 °C.

For the molecule `CN1CCN(c2ccc([N+](=O)[O-])cc2)S1(=O)=O`, the melting point lay within 155 to 163 °C.

Take `CC(C)c1cc(C2SCC(=O)N2CCCCl)cc(C(C)C)c1O` (stereo unspecified): the melting point was 105 to 106 °C.

For `O=C(CCl)OCCCCOC(=O)CCl`, the melting point is 74 to 76.5 °C.

`COC(=O)Cc1c(C(=O)OC)oc2ccccc2c1=O`: the melting point was found to be 105 °C.

As for `COC(=O)C=Cc1ccc(C)s1`, the melting point lay within 59 to 60 °C.

As to `CCCCOC(=O)NCc1nc(-c2ccc3c(c2)Nc2ccccc2S3)cs1`, the melting point was 186 to 188 °C.

For the molecule `COC(=O)COc1ccc(C(O)CNCc2ccc(C(=O)OC)cc2)cc1` (stereo unspecified), the melting point lay in the range of 97 to 100 °C.

Consider `COC(=O)CCc1cc2nc(Cl)ccc2n1S(=O)(=O)c1cccc2cccnc12`, for which the melting point amounted to 120 °C.

For the molecule `COc1ccc(C2=C(c3c4n(c5ccccc35)CCC(CN)C4)C(=O)NC2=O)cc1` (stereo unspecified), the melting point lay within 195 to 196 °C.

As to `O=C1[C@H]2CCC[C@H]2Nc2cc([N+](=O)[O-])ccc2N1Cc1ccccc1` (relative stereo), the melting point fell in the range of 174 to 176 °C.

With `C=CCC(NC(=O)c1ccc(OC)cc1)C(=O)O` (stereo unspecified), the melting point fell in the range of 121 to 124 °C.

`O=C(NCCCl)Nc1ccc2[nH]ccc2c1` displayed a melting point of 159 to 161 °C.

The molecule `COC(=O)c1ccc(Cn2nc(CO)c3ccc(C(=O)NCC4CCCC4)cc32)c(OC)c1` displayed a melting point of 187 to 188 °C.

In turn, `CC1CC(=O)c2cc(F)ccc2S1(=O)=O` (stereo unspecified) showed a melting point of 113 to 114 °C.

For `Cn1nccc1OCc1c(S(C)(=O)=O)ccc(C(=O)O)c1Cl`, the melting point was 197 °C.

For the molecule `COc1ccc(C2CC(c3ccccc3OC)=NN2c2ccc(C(=O)O)cc2)cc1` (stereo unspecified), the melting point is 243 °C.

For the molecule `COC(=O)C(OC(=O)c1ccc(C(=O)O)cc1)C(=O)OC`, the melting point fell in the range of 104 to 107 °C.

As for `CC(C(=O)O)c1ccc([N+](=O)[O-])c(CC(=O)O)c1` (stereo unspecified), the melting point was 169 to 171 °C.

For the molecule `COc1ccc(/C(=C\C=O)c2ccccc2OC)cc1`, the melting point lay within 92 to 94 °C.

`COC(=O)c1cc(-c2c(-c3ccccc3)nn3ccccc23)cn(C)c1=O` returned a melting point of 268 to 270 °C.

`C/C(=C\c1ccc(OCCN(C)C)cc1)c1ccc2c(c1)C(C)(C)CCS2` yielded a melting point of 81 to 82 °C.

As to `CC(C)(C)OC(=O)N[C@@H](Cc1ccccc1)C(=O)NC1CCC(Nc2cccc3c2C(=O)c2ccccc2C3=O)CC1` (stereo partly specified), the melting point is 142 °C.

In the case of `CN(C)Cc1nc(-c2ncn3c2C2CCCN2C(=O)c2c(Cl)cccc2-3)no1` (stereo unspecified), the melting point came to 261 °C.

In the case of `N#Cc1ccc(CCCCCO)cc1`, the melting point was 39 to 41 °C.

On to `COC(=O)Cc1ccc(CNC(=O)[C@@H](CCCNC(N)=N[N+](=O)[O-])NC(=O)C(c2ccccc2)c2ccccc2)cc1`, for which the melting point was in the range of 158 to 160 °C.

`Clc1ccc(-c2nc3cccnc3n2Cc2ccccn2)cc1`: the melting point lay in the range of 144 to 146 °C.

Turning to `CN(C)C(=O)c1cccc(NC(=O)Oc2ccccc2)c1`, the melting point is 151 to 153 °C.

As for `CCOC(=O)c1ncn2c1CNC(=O)c1cc(F)ccc1-2`, the melting point stood at 298 °C.

The molecule `CC(=NOCCOc1ccc(CC2SC(=O)NC2=O)cc1)c1ccc(-c2ccc3c(c2)OCO3)cc1` (stereo unspecified) gave a melting point of 137 to 139 °C.

For `Cc1cc(Cl)cc(C(=O)Nc2ccn(C)n2)n1`, the melting point came out at 204 °C.

As for `CCNc1ccc(F)cc1OCc1ccccc1`, the melting point was in the range of 58 to 59 °C.

In turn, `Cc1cccc2c1sc1nc(C(F)(F)F)nn12` registered a melting point of 80 to 81 °C.

The molecule `COc1cc(Nc2c(C#N)cnc3ccc(/C=C/CCN4CCOCC4)cc23)c(Cl)cc1Cl` displayed a melting point of 95 to 96 °C.

The molecule `O=C1NCCc2oc3ccccc3c21` registered a melting point of 158 to 161 °C.

Take `N#Cc1cc(N)c(Cl)cc1C#N`: the melting point was in the range of 206 to 209 °C.

As to `COc1cc(C2NC(=O)C(C)S2)cc(OC)c1OC` (stereo unspecified), the melting point was 133 to 134 °C.

In turn, `Cc1nccn1-c1ccc(N2C[C@H](CNc3ccon3)OC2=O)cc1F` registered a melting point of 106 to 107 °C.

For the molecule `CC(COc1ccc2ccc(Oc3c(F)cc(C(F)(F)F)cc3Cl)cc2c1)=NO`, the melting point amounted to 153 °C.

On to `CC(=O)N1CCC(C(=O)N(CCCN2CCC(Cc3ccccc3)CC2)c2ccc(C)c(Cl)c2)CC1`, for which the melting point lay in the range of 96 to 99 °C.

The molecule `CCOC(=O)CC(=O)c1ccnc(F)c1` displayed a melting point of 66 to 67 °C.

`O=C1c2cccc3cccc(c23)C(=O)N1CCCCO`: the melting point was in the range of 105 to 108 °C.

For `OC1CSC(Oc2cncc(-c3cc4ccccc4o3)c2)C(O)C1O` (stereo unspecified), the melting point was 210 °C.

`C=C(C(=O)c1ccc(OC)c(Cl)c1Cl)C1CCCC1`: the melting point was in the range of 59 to 63 °C.

For the molecule `OC[C@H]1O[C@@H]1c1ccc(Cl)cc1`, the melting point is 59 to 68 °C.

As to `CC(=O)N(CCCOc1ccc(C(=O)O)cc1)c1ccc(Cl)cc1`, the melting point lay within 169 to 171 °C.

`CCOC(=O)Nc1cccc(C(=O)Nc2ccc3ccc(OC)nc3n2)c1` gave a melting point of 120 °C.

On to `C1=C(c2c[nH]c3ccccc23)CCNC1`, for which the melting point was in the range of 185 to 186 °C.

Molecule `Cc1c(-c2ccccc2)n(-c2c(F)c(F)c(F)c(F)c2F)c(-c2ccccc2)cc1=O` registered a melting point of 192 to 194 °C.

For `CC(CCc1ccccc1)N(C)C1CCC(c2ccc(OCc3ccccc3)cc2)CC1` (racemic), the melting point was 54.5 to 55.5 °C.

As to `CC(C)(C)OC(=O)N1CCN(S(=O)(=O)c2ccc(S(=O)(=O)c3ccc4cc(Br)ccc4c3)cc2)CC1`, the melting point fell in the range of 213 to 215 °C.

Consider `Cc1cc(SCc2ccc(-c3ccccc3)cc2)ccc1OCC(=O)O`, for which the melting point turned out to be 138 °C.

With `O=C(Nc1ccc(C(F)(F)F)cc1)NC1CCN(S(=O)(=O)c2ccc(Cl)cc2)CC1`, the melting point was in the range of 266 to 270 °C.

For the molecule `COc1cc(C(=O)O)cc2c1CC(C)O2` (stereo unspecified), the melting point was 180 to 182 °C.

With `CC1=Nc2c(C)nn(CC(F)(F)F)c2C2=NC(C)CN12` (stereo unspecified), the melting point lay in the range of 91 to 95 °C.

`CC(=O)OC1CCN(c2c(F)cc3c(=O)c(C(=O)O)cn4c3c2CCC4C)CC1` (stereo unspecified) had a melting point of 250 to 253 °C.

In turn, `Cc1ccc(-c2ccc(OC3SCC(O)C(O)C3O)cn2)o1` (stereo unspecified) displayed a melting point of 168 °C.

`CC(C)(CN(Cc1ccccc1)C(=O)CCC(=O)O)SN=O` displayed a melting point of 95 to 98 °C.

In turn, `N#Cc1ccc(C(=O)N2CCc3c([nH]c4ccccc34)C2)cc1` showed a melting point of 228 to 232 °C.

`CCOC(=O)[C@](CC(=O)OC1CC(C)CCC1C(C)C)(NC(=O)OCc1ccccc1)C(N)=O` (stereo partly specified) showed a melting point of 124 °C.

With `O=C(N[C@H]1CCN(CCc2ccc(F)cc2)C1)C(c1cccs1)c1cccs1`, the melting point lay in the range of 96 to 98 °C.

For `Cc1ccc(C2C(=O)CCC2=O)c(C)c1`, the melting point fell in the range of 198 to 200 °C.

In turn, `CC(C)N1CC2CC(CN(C(=O)c3ccc(Cl)cc3)C2)C1` gave a melting point of 97 to 98 °C.

Consider `O=C(Nc1ccc(Oc2ccc(Cl)cc2Cl)nc1)N1CCc2ccccc2CC1`, for which the melting point fell in the range of 154 to 155 °C.

In turn, `Cn1c(=O)n(C)c2cc(C(=O)CSCCC(=O)O)ccc21` came in with a melting point of 174 to 176 °C.

For the molecule `CCOC(=O)CCCOc1ccc(S(=O)(=O)n2c(=O)[nH]c3cc(Cl)ccc3c2=O)cc1`, the melting point was 167 to 169 °C.

`CC(=O)C=Cc1ccc(Cl)c(Cl)c1` registered a melting point of 53 to 55 °C.

In turn, `O=C(CBr)c1csc(-c2ccc([N+](=O)[O-])cc2)n1` yielded a melting point of 186 to 187 °C.

With `CCCCc1oc2ccccc2c1C(=O)NCc1ccc2c(-c3ccc(Cl)cc3)c(OCc3nnn[nH]3)ccc2c1`, the melting point lay within 208 to 211 °C.
